Assay results: patent US4000269A, “S-(α-substituted-arylmethylthio, -arylmethylsulfinyl, and -arylmethylsulfonyl)methyl phosphorus esters used as insecticides” (priority 1975, dated 1976)
Read-outs that look alike come from different tables or passages of the source.

Tests used:
[1] = Mammalian Toxicity Studies (LD50 for Mice); parameters: species or system mice (Carworth Farms Nelson, CFI strain); settings: mouse, in vivo; 14-day observation; corn oil
Protocol: (§1) Twenty male albino rats or mice of the Carworth Farms Nelson strain (CFI strain for mice)(or other suitable strain) weighing approximately 90 to 120 grams (18-20g. for mice) are selected. Basically, these animals are fasted 24 hours before dosing. Mice are not fasted.
(§2) For materials which are soluble or easily dispersed in an aqueous medium, a 20% solution or suspension is prepared in an aqueous solution of 0.2% agar and 0.1% "Tween" 80. The same series of dosages (grams or milliliters of material per kilogram of animal body weight) are used for all materials in this test. If no previous information is available on the compound or its analogs, a maximum dosage of 10 g/kg is selected to differ by a geometric factor of 2 from the preceding dose, i.e., 10, 5, 2.5, 1.25 g/kg. A sufficient number of dosages are given so as to bracket a 50% response. The animals are observed for several hours after dosing and daily over a 14-day observation period. At the end of this period the survivors are sacrificed, weighed and subjected to a gross autopsy. The results are tabulated and the LD50 is calculated by the method of moving averages using the tables constructed by Weil. [Weil, C. S., Biometrics, 8: (3), 249-263, 1952].
(§3) Samples received as liquids may be administered undiluted or as suspensions in aqueous Agar-Tween, depending on the viscosity of the material. If the material is believed to be relatively non-toxic, an initial maximum dosage of 10 ml/kg is selected and subsequent dosages are selected based upon the severity of gross signs of toxicity.
(§4) For organic phosphate anticholinesterase insecticides, the procedure is modified somewhat. The phosphates are readied for administration by preparing a solution or dispersion in corn oil (Mazola), the concentration of which is adjusted so that the total volume of the dose is 20 ml/kg ([…]) in every case. The initial solution is prepared by deciding upon the maximum dosage in mg/kg to be administered and preparing 50 ml. (10 in mouse test) of this solution of such a concentration that the desired dosage in mg/kg is delivered when 2 ml. (0.5 ml. in mouse test) of the solution is administered for 100 g (20 g in mouse) of rat body weight. Serial dilutions differing by a factor of two are then prepared for each lower dosage level.

[2] = test system: False wireworm larvae (Eleodes suturalis); assay: False Wireworm Control (treated soil, dust on talc); assay type: in vivo; settings: 144 h, potting soil, mortality after 6 days, read-out: Percent Control of False Wireworms; for mortality at 1120.85 g/ha: 1 lbs./Acre; for mortality at 11208.5 g/ha: 10 lbs./Acre; for mortality at 56042.5 g/ha: 50 lbs./Acre
Protocol: (§5) Compounds are prepared as dusts on talc. The compounds are dissolved in acetone, and appropriate rates obtained by serial dilution. One and one-quarter milliliters of solution is pipetted onto a standard volume of dust in 1 -ounce jars, and the acetone allowed to evaporate. Twenty-five milliliters of moist soil and about three wheat seeds are placed in the jar, capped, and the contents thoroughly mixed. Ten False wireworm larvae (Eleodes suturalis ), 10 days old, are then placed in each jar. Mortality counts are made after 6 days and percent mortality determined.

[3] = Mammalian Toxicity Studies (LD50 for Rats); parameters: species or system male albino rats (Carworth Farms Nelson strain); settings: rat, in vivo; 14-day observation; corn oil
Protocol: as §1, §2, §3, §4

[4] = test system: Southern corn rootworm larvae (Diabrotica undecimpunctata); assay: Southern Corn Rootworm Control (treated soil, dust on talc); assay type: in vivo; settings: 144 h, potting soil, mortality after 6 days, read-out: Percent Control of Southern Corn Rootworm Larvae; for mortality at 1120.85 g/ha: 1 lbs./Acre; for mortality at 11208.5 g/ha: 10 lbs./Acre; for mortality at 56042.5 g/ha: 50 lbs./Acre
Protocol: as §5, with “200 millet” for “three wheat”, “capped” for “capped,”, “second-instar” for “False wireworm”, “of the Southern corn rootworm (Diabrotica undecimpunctata )” for “(Eleodes suturalis ), 10 days old,”

Mites = assay: Cut-Stem Systemic Test (Mites); assay type: in vivo; settings: 100 ppm. emulsion, 3 days
Protocol: (§6) The compound to be tested is formulated as an emulsion containing 0.1 gram of test material, 0.2 gram of Alrodyne 315 emulsifier, 10 ml. of acetone and 90 ml. of water. This is diluted tenfold with water to give a 100 ppm. emulsion for the initial test. A sieva lima bean plant with only the primary leaves unfolded is cut off just above soil level and inserted into a 2-ounce bottle of 100 ppm. emulsion and held in place by a bit of cotton wrapped around the stem. The bottle is then placed in a ventilated box with the leaves extending outside the box, such that any possible fumes from the compound will be drawn out the end of the box rather than rising to affect the test leaves. After holding 3 days at 80° F. and 60% R.H., one leaf from each plant is placed on a moist filter paper in the bottom of a petri dish. Ten third-instar Southern armyworm larvae are then added to each dish and mortality counts made after holding another 3 days at 80° F. and 60% R.H.
The same procedure described above is employed in the mite systemic evaluation excepting that the sieva lima bean leaves are infested with mites, both adult and nymphs, while the leaves are in the ventilated box. After 3 days the leaves are removed and examined under a microscope to determine percent mortality. Data obtained are reported in the Table IV below where it can be seen that the compounds of the present invention are systemically effective insecticidal agents.

Southern armyworm larvae = assay: Cut-Stem Systemic Test (Southern Armyworm); assay type: in vivo; settings: Spodoptera eridania, 72 h, read-out: % Mortality, Southern Armyworms (Systemic Insecticidal Activity)
Protocol: as §6

Rats = test system: Rats; parameters: unit not given here; settings: Value reported in the literature; 20160 min; cited from earlier work
[5] = cut-stem, 100 ppm. emulsion, larvae held 3 days

| Structure (SMILES) | LD50 at 336 h [1] [mg/kg] | mortality at 1120.85 g/ha [2] [%] | mortality at 11208.5 g/ha [2] [%] | mortality at 56042.5 g/ha [2] [%] | LD50 at 336 h [3] [mg/kg] | mortality at 1120.85 g/ha [4] [%] | mortality at 11208.5 g/ha [4] [%] | mortality at 56042.5 g/ha [4] [%] | % Mortality, Mites (Systemic Insecticidal Activity) (Mites) [%] | mortality at 100 µg/mL (Southern armyworm larvae; [5]) [%] | LD50 Rats (Rats) | mortality at 100 µg/mL (Southern armyworm larvae) [%] |
| --- | --- | --- | --- | --- | --- | --- | --- | --- | --- | --- | --- | --- |
| COP(=S)(OC)SCSC(C)(C)c1ccccc1 [Example 5, S-(α,α-Dimethylbenzylthio)methyl O,O-Dimethyl Phosphorodithioate] | 117 | 100 | 100 | 100 | 28 | 100 | 100 | 100 | – | – | – | – |
| CCCSP(=O)(OCC)SCSC(C)(C)c1ccccc1 (stereo not drawn) [Example 12, S-(α,α-Dimethylbenzylthio)methyl O-Ethyl S-Propyl Phosphorodithioate] | – | – | – | – | 34 | 0 | 100 | 100 | 90 | 0 | – | – |
| COP(=O)(SC)SCSC(C)(C)c1ccc(Cl)cc1 (stereo not drawn) [Example 16, S-(p-Chloro-α,α-dimethylbenzylthio)methyl O-Methyl S-Methyl Phosphorodithioate] | – | – | – | – | – | 0 | 100 | 100 | 30 | 0 | – | – |
| CCOP(=S)(OCC)SCSCc1ccccc1 [reference compound] | 67 | – | – | – | – | – | – | – | – | – | 25 | – |
| CCOP(=S)(OCC)SCSCC [reference compound] | 5.6 | – | – | – | 1 to 5 | – | – | – | – | – | – | – |
| COP(=S)(OC)SCSC(C)(C)c1ccc(Br)cc1 [Example 13, S-(p-Bromo-α,α-dimethylbenzylthio)methyl O,O-Dimethyl Phosphordithioate] | – | – | – | – | 280 | 90 | 100 | 100 | 100 | 100 | – | – |
| CCOP(=S)(OCC)SCSC(C)(C)c1ccc(Cl)c(Cl)c1 [Example 8, S-(3,4-Dichloro-α,α-dimethylbenzylthio)methyl O,O-Diethyl Phophorodithioate] | – | – | – | – | 100 | – | – | – | 100 | 100 | – | – |
| CC(C)OP(=S)(OC(C)C)SCSC(C)(C)c1ccccc1 [Example 20, S-(α,α-Dimethylbenzylthio)methyl O,O-diisopropylPhosphorodithioate] | – | – | 0 | 100 | – | – | 0 | 100 | – | – | – | – |
| COP(=S)(OC)SCSC(C)(C)c1cccc(Cl)c1Cl [Example 23, S-(2,3-Dichloro-α,α-dimethylbenzylthio)methyl O,O-Dimethyl Phosphorodithioate] | – | – | – | – | > 500 | 60 | 90 | 100 | – | – | – | – |
| CCOP(=S)(OCC)SCSC(C)c1ccccc1 (stereo not drawn) [Example 15, S-(α-Methylbenzylthio)methyl O,O-Diethyl Phosphorodithioate] | 67 | 0 | 100 | 100 | – | 80 | 100 | 100 | – | – | – | – |
| CCOP(=S)(OCC)SCSC(C)(C)c1ccc(Cl)cc1 [Example 6, S-(p-Chloro-α,α-Dimethylbenzylthio)methyl O,O-Diethyl Phosphorodithioate] | – | – | – | – | 79 | 0 | 90 | 100 | – | – | – | – |
| CCOP(=S)(OCC)SC[S+]([O-])C(C)(C)c1ccccc1 (stereo not drawn) [Example 27, S-(α,α-Dimethylbenzylsulfinyl)methyl O,O-Diethyl Phosphorodithioate] | 88 | 0 | 100 | 100 | – | 0 | 100 | 100 | – | – | – | – |
| COP(=S)(OC)SCSC(C)(C)c1ccc(Cl)cc1 [Example 7, S-(p-Chloro-α,α-dimethylbenzylthio)methyl O,O-Dimethyl Phosphorodithioate] | – | – | – | – | 230 | 100 | 100 | 100 | 100 | 100 | – | – |
| COP(=S)(OC)SCSC(C)(C)c1ccc(Cl)c(Cl)c1 [Example 11, S-(3,4-Dichloro-α,α-dimethylbenzylthio)methyl O,O-Dimethyl Phosphorodithioate] | – | – | – | – | > 200 | 100 | 100 | 100 | 30 | 90 | – | – |
| CCOP(=S)(OCC)SCSC(C)(C)c1ccccc1 [Example 2, S-(α,α-Dimethylbenzylthio)methyl O,O-Diethyl Phosphorodithioate] | 71 | 0 | 100 | 100 | 18 | 90 | 100 | 100 | 80 | – | – | 100 |
| COP(=S)(OC)SCSC(C)(C)c1cc(Cl)ccc1Cl [Example 25, S-(2,5-Dichloro-α,α-dimethylbenzylthio)methyl O,O-Dimethyl Phosphorodithioate] | – | – | – | – | 800 | 0 | 100 | 100 | – | – | – | – |
